From patent US5219741A, “Method of making L-proline using an N-acyl-L-protine acylase” (priority 1990, dated 1993)
Entries after “also recorded” stand apart in the source; their conditions may differ.

Experiments:
[1] = tested on: Comamonas testosteroni DSM 5416; experiment: Growth of the strain in culture medium (OD600); assay type: cell-based
Experimental: Strains which appeared uniform according to the colony morphology and the microscopic image were then cultivated in 100 ml liquid medium (500 ml Erlenmeyer flask with top and 4 lateral baffles) at 30° C. on a rotary agitator machine at 200 rpms. The culture medium had the following composition: […]
(§1) The carbon source of the culture medium with a concentration of 4 g/l was varied and the influence on growth and acylase formation determined.
(§2) The concentration of N-acetyl-L-proline was varied in a range of 1 g/l-5 g/l in steps of 1 g/l in the culture medium as described in Example 1.
(§3) The concentration of (NH4)2 SO4 was varied in a range of 1 g/l-5 g/l in steps of 1 g/l in the culture medium as described in Example 1.
(§4) The concentration of yeast extract was varied in a range of 1 g/l-5 g/l in steps of 1 g/l in the culture medium as described in Example 1.
(§5) The N-acetyl-L-proline concentration was reduced to 0.2 to 1.0 g/l in the culture medium as described in Example 1 and 4 g/l Na acetate were additionally added.
(§6) The method described above under f) was followed. However, the inductor, N-acetyl-L-proline, was not added to the nutrient medium until the late exponential growth phase after an incubation time of 12 hours.
(§7) The method described above under f) was followed. In addition to N-acetyl-L-proline, various N-acetyl- and N-chloroacetyl amino acids were added to the nutrient medium in a concentration of 1 g/l.

[2] = tested on: N-acyl-L-proline acylase formation in Comamonas testosteroni DSM 5416; experiment: Acylase formation: specific activity of N-acyl-L-proline acylase in crude extract; assay type: cell-based
Experimental: After 24 to 48 hours, the cell-containing nutrient medium was centrifuged (15 min., 4,500 g in a cooling centrifuge), the cells were washed twice with 0.9% (w/v) NaCl solution and resuspended in 10 ml 0.1M tris-HCl buffer, pH 7.0.
The microorganisms of this suspension were macerated by ultrasound treatment (Sonifier-Cell Disrupter B-30 of the firm Branson Sonic Power Co., Danbury, Conn., USA) (2 minutes pulsating, corresponding to 1 minute of pure ultrasonic radiation. The cell fragments and non-macerated cells were centrifuged in a cooled centrifuge 30 minutes at 40,000 g and 5° C. The clear supernatant (=crude extract) was used in an enzyme test.
The reaction was started by adding crude extract and the reaction batches customarily incubated for 10 minutes at 30° C. The incubation time and the amount of crude extract were selected so that the linearity range of the enzymatic reaction and of the subsequent proline detection were not exceeded.
The enzymatic reaction was interrupted by pipetting 50 μl of the enzyme sample into 1.25 ml 100% acetic acid. Subsequently, 0.45 ml 0.1M tris-HCl buffer pH 7.0 and 1.25 ml ninhydrin reagent (3 g ninhydrin dissolved by heating in a mixture of 60 ml 100% acetic acid and 40 ml 6M phosphoric acid) were added. The ninhydrin reagent was freshly prepared daily. The test tubes were loosely closed with screw-on caps, incubated 30 minutes at 100° C. and subsequently cooled down in an ice bath.
The L-proline, liberated by the enzymatic hydrolysis, forms a red dye with ninhydrin at 100° C. The absorption of the red dye was measured in a spectrophotometer at 480 nm relative to a control batch without crude extract (=substrate blank). The concentration of the L-proline produced was determined using a straight calibration line with L-proline in a range of 5 to 100 nmoles per 50 μl specimen. The enzyme activity was indicated in international units; thus, one unit (U) corresponded to an amount of 1 μmole L-proline produced per minute.
The protein determination was carried out with a protein-determination kit of the firm Pierce Chemical Co., Rockford, Ill., USA, according to Bradford, Anal. Biochem. 72, pp. 248-254 (1976).
as §1, §2, §3, §4, §5, §6, §7

N-acyl-L-proline acylase = experiment: Substrate specificity: hydrolysis of N-acyl amino acids and proline derivatives; assay type: biochemical, Comamonas testosteroni DSM 5416
Experimental: The activity of acylase was determined with various N-acetyl-L-amino acids and N-chloroacetyl-L-amino acids in a reaction batch with the following composition:
The reaction temperature was 30° C. and the incubation time 15 minutes to 24 hours. 0.2 ml samples of the reaction batch in each instance were mixed at different times with 0.2 ml 10% (w/v) trichloroacetic acid and the denatured protein centrifuged off for 10 minutes at 11,000 rpms in a table centrifuge. The supernatant was diluted with a 0.1M Na citrate buffer pH 2.2 with 25% (v/v) 2.2-thiodiethanol and 0.1% (v/v) phenol 1:5 and 1:50 respectively. The amino acids released were quantitatively detected by an amino-acid analyzer LC 5001 of the firm Biotronic, Maintal, Federal Republic of Germany. In Table 16, the substrates marked with * and the corresponding products were quantified by means of HPLC.
The activity of the acylase was determined with various proline derivatives as under a).

[3] = carbon source 4 g/l in culture medium
[4] = (NH4)2 SO4 1 g/l in culture medium, 23 hours
[5] = (NH4)2 SO4 2 g/l in culture medium, 23 hours
[6] = (NH4)2 SO4 3 g/l in culture medium, 23 hours
[7] = (NH4)2 SO4 4 g/l in culture medium, 23 hours
[8] = (NH4)2 SO4 5 g/l in culture medium, 23 hours
[9] = inductor 1 g/l + 4 g/l Na acetate, 24 hours
[10] = 20 mM substrate 1.0 ml in 2.0 ml batch, 30° C., pH 7.0, N-acetyl-L-proline = 100%, amino-acid analyzer

O=C(CO)[C@@H](O)[C@H](O)[C@H](O)CO [fructose]
Growth (OD600) [1, 3]: No growth

CCC(=O)O [Propionate]
Growth (OD600) [1, 3]: 1.9 OD600 | Spec. activity (U/mg) [2, 3]: < 0.01 U/mg

O=C(O)CC(O)(CC(=O)O)C(=O)O [citrate]
Growth (OD600) [1, 3]: No growth

N=C(N)NCCC[C@H](N)C(=O)O [Larginine]
Growth (OD600) [1, 3]: No growth

OC[C@H]1O[C@@](CO)(O[C@H]2O[C@H](CO)[C@@H](O)[C@H](O)[C@H]2O)[C@@H](O)[C@@H]1O [saccharose]
Growth (OD600) [1, 3]: No growth

O=C[C@H](O)[C@@H](O)[C@H](O)[C@H](O)CO [glucose]
Growth (OD600) [1, 3]: No growth

phenylacetate
Growth (OD600) [1, 3]: No growth

OC[C@H]1O[C@@H](O[C@H]2[C@H](O)[C@@H](O)C(O)O[C@@H]2CO)[C@H](O)[C@@H](O)[C@H]1O (stereo partly drawn) [lactose]
Growth (OD600) [1, 3]: No growth

CC(=O)C(=O)O [Pyruvate]
Growth (OD600) [1, 3]: 2.4 OD600 | Spec. activity (U/mg) [2, 3]: < 0.01 U/mg

N.N.O=S(=O)(O)O [(NH4)2 SO4]
Growth (OD600) [1, 4]: 5.24 OD600 | Growth (OD600) [1, 5]: 5.67 OD600 | Growth (OD600) [1, 6]: 5.47 OD600 | Growth (OD600) [1, 7]: 5.44 OD600 | Growth (OD600) [1, 8]: 5.47 OD600 | Optimum concentration in the culture medium for acylase formation [2]: 2 g/L | Spec. activity (U/mg) [2, 4]: 1.71 U/mg | Spec. activity (U/mg) [2, 5]: 1.91 U/mg | Spec. activity (U/mg) [2, 6]: 1.53 U/mg | Spec. activity (U/mg) [2, 7]: 1.59 U/mg | Spec. activity (U/mg) [2, 8]: 1.32 U/mg

CC(O)C(=O)O (stereo not drawn) [Lactate]
Growth (OD600) [1, 3]: 3.0 OD600 | Spec. activity (U/mg) [2, 3]: < 0.01 U/mg

N[C@@H](CC(=O)O)C(=O)O [L-aspartate]
Growth (OD600) [1, 3]: 2.0 OD600 | Spec. activity (U/mg) [2, 3]: < 0.01 U/mg

N[C@@H](Cc1c[nH]c2ccccc12)C(=O)O [Ltryptophane]
Growth (OD600) [1, 3]: No growth

CC(C)C[C@H](N)C(=O)O [L-leucine]
Growth (OD600) [1, 3]: 2.6 OD600 | Spec. activity (U/mg) [2, 3]: < 0.01 U/mg

O=C[C@H](O)[C@@H](O)[C@H](O)CO [xylose]
Growth (OD600) [1, 3]: No growth

OCC(O)CO [Glycerol]
Growth (OD600) [1, 3]: 1.1 OD600 | Spec. activity (U/mg) [2, 3]: < 0.01 U/mg

N[C@@H](Cc1c[nH]cn1)C(=O)O [Lhistidine]
Growth (OD600) [1, 3]: No growth

CC(C)C[C@H](NC(=O)CCl)C(=O)O [ClAc--L--Leu]
Growth (OD600) [1, 9]: 2.65 OD600 | Rel. activity (%) (N-acyl-L-proline acylase; [10]): 1.9% | Spec. activity (U/mg) [2, 9]: < 0.01 U/mg

CSCC[C@H](NC(=O)CCl)C(=O)O [N-chloroacetyl-L-methionine]
Growth (OD600) [1, 9]: 2.19 OD600 | Hydrolysis by the acylase (in words) (N-acyl-L-proline acylase): hydrolyzes; also recorded: reacted at a distinctly lower speed | Rel. activity (%) (N-acyl-L-proline acylase; [10]): 17.1% | Spec. activity (U/mg) [2, 9]: < 0.01 U/mg

O=C(O)CC(O)C(=O)O (stereo not drawn) [Malate]
Growth (OD600) [1, 3]: 3.4 OD600 | Spec. activity (U/mg) [2, 3]: < 0.01 U/mg

O=C(CCl)N[C@@H](Cc1ccc(O)cc1)C(=O)O [ClAc--L--Tyr]
Growth (OD600) [1, 9]: 2.76 OD600 | Rel. activity (%) (N-acyl-L-proline acylase; [10]): 1.0% | Spec. activity (U/mg) [2, 9]: < 0.01 U/mg

OC[C@H]1O[C@H](O[C@H]2[C@H](O)[C@@H](O)[C@H](O)O[C@@H]2CO)[C@H](O)[C@@H](O)[C@@H]1O [maltose]
Growth (OD600) [1, 3]: No growth

CC(=O)O [Acetate]
Growth (OD600) [1, 3]: 2.3 OD600 | Acylase formation / induction (in words) [2]: not repressed | Spec. activity (U/mg) [2, 3]: < 0.01 U/mg

O=C(O)[C@@H]1CCCN1 [L-proline]
Growth (OD600) [1, 3]: 3.9 OD600 | Spec. activity (U/mg) [2, 3]: < 0.01 U/mg

N[C@@H](CO)C(=O)O [Lserin]
Growth (OD600) [1, 3]: No growth

CC(C)[C@H](NC(=O)CCl)C(=O)O [N-chloroacetyl-L-valine]
Growth (OD600) [1, 9]: 2.50 OD600 | Hydrolysis by the acylase (in words) (N-acyl-L-proline acylase): hydrolyzes; also recorded: reacted at a distinctly lower speed | Rel. activity (%) (N-acyl-L-proline acylase; [10]): 14.1% | Spec. activity (U/mg) [2, 9]: < 0.01 U/mg

CCCC(=O)O [Butyrate]
Growth (OD600) [1, 3]: 1.8 OD600 | Spec. activity (U/mg) [2, 3]: < 0.01 U/mg

O=C(CCl)N[C@@H](Cc1ccccc1)C(=O)O [ClAc--L--Phe]
Growth (OD600) [1, 9]: 2.89 OD600 | Rel. activity (%) (N-acyl-L-proline acylase; [10]): 1.0% | Spec. activity (U/mg) [2, 9]: < 0.01 U/mg

CC(=O)N[C@@H](C)C(=O)O [N-acetyl-L-alanine]
Growth (OD600) [1, 9]: 2.28 OD600 | Hydrolysis by the acylase (in words) (N-acyl-L-proline acylase): hydrolyzes; also recorded: reacted at a distinctly lower speed | Rel. activity (%) (N-acyl-L-proline acylase; [10]): 9.3% | Spec. activity (U/mg) [2, 9]: < 0.01 U/mg

O=C(O)[C@@H]1CCCN1C(=O)OCc1ccccc1 [Z--L--Pro--OH]
Relative Activity (%) (N-acyl-L-proline acylase; proline derivatives, 30° C., pH 7.0, N-acetyl-L-proline = 100%): 0%

O=C[C@@H](O)[C@@H](O)[C@H](O)[C@H](O)CO [mannose]
Growth (OD600) [1, 3]: No growth

O=C(O)[C@@H]1Cc2ccccc2N1C(=O)CCl [ClAc--L-indolin-2-carboxylic acid]
Rel. activity (%) (N-acyl-L-proline acylase; quantified by HPLC, N-acetyl-L-proline = 100%): 0%

O=C(O)[C@@H]1SCCN1C(=O)CCl [N-chloroacetyl-L-thiazolidine-2-carboxylic acid]
Hydrolysis by the acylase (in words) (N-acyl-L-proline acylase): hydrolyzes
